Measured values taken from publication PMC9598531 (Biology, 2022).
Like-named read-outs stand apart in the source and are kept apart here.

Experiments:
human KMO [1] = target: T1, human KMO (Homo sapiens, UniProt O15229); assay: KMO enzyme activity (inhibitor screening kit) assay; type: biochemical; parameters: purchased BPS Bioscience; conditions: for inhibition at 100 µM: read-out: % inhibition of KMO enzyme activity; for IC50: human KMO enzyme
Protocol: The enzymatic assay was performed in duplicate. Ro 61-8048 was used as the positive control. The test compounds were dissolved in DMSO at 100 mM and diluted to 1 mM in assay buffer. A reaction mixture of assay buffer (50 μL), human KMO (20 μg/mL; 50 μL), test compounds (1 mM; 10 μL), and substrate (40 μL NADPH (10 mM) plus L-Kyn (20 mM)) were incubated in a 96-well plate at room temperature for 1.5 h. The absorbance was recorded at 340 nm. The enzyme activity was expressed as % activity as follows: % Activity=[(Abssample−Absblank)/(Abscontrol−Absblank)]×100
% Inhibition was calculated by subtracting the % activity from 100%.

human KMO [2] = target: T1, human KMO; assay: SPR binding assay (Biacore T200); parameters: purchased Cosmo Bio USA; conditions: for Kon: association rate; for Kd: dissociation constant
Protocol: The protein was manually immobilized on a Series S Sensor Chip CM5 based on an amine coupling method with minor modification. An SPR assay was conducted on the Biacore T200 SPR instrument (Cytiva; Marlborough, MA, USA). […] Ro 61-8048 stock solution (6 mM; dissolved in DMSO) was diluted into a series of concentrations ranging from 1.25 to 20 μM in the running buffer.

human KMO [3] = target: T1, human KMO; assay: KMO enzyme activity (inhibitor screening kit) assay; type: biochemical; parameters: purchased BPS Bioscience; conditions: read-out: % inhibition of KMO
human KMO [4] = target: T1, human KMO; assay: Competitive SPR binding assay; conditions: for Experimental RU: CFA 75 μM, Ro 61-8048 5 μM, alone or combined
Protocol: HBS-P+ (20 mM; 0.02 M HEPES, 0.3 M NaCl, 0.1% v/v surfactant P20; pH 7.4) containing 3% DMSO was used as the running buffer. […] Ro 61-8048 was prepared as a final concentration of 5 μM in running buffer. […] FO(A)=1/1+KDA/CA(1+CB/KDB);FO(B)=1/1+KDB/CB(1+CA/KDA) where CA and CB are the respective concentrations of both binders, and KDA and KDB represent the equilibrium dissociation constants of the binders. The FO values were used to calculate the theoretical RU representative of competing compounds using the following equation [23]: Robserved=FO(A)·Rmax(A)+FO(B)·Rmax(B)

KMO [5] = conditions: KMO inhibitor; cited from earlier work
KMO [6] = system: KMO; parameters: method as in PMID 28464785; conditions: rat liver and kidney homogenates in vitro; cited from earlier work
[7] = parameters: method as in PMID 21640374; conditions: cited from earlier work

T1 sequence (O15229 whole entry): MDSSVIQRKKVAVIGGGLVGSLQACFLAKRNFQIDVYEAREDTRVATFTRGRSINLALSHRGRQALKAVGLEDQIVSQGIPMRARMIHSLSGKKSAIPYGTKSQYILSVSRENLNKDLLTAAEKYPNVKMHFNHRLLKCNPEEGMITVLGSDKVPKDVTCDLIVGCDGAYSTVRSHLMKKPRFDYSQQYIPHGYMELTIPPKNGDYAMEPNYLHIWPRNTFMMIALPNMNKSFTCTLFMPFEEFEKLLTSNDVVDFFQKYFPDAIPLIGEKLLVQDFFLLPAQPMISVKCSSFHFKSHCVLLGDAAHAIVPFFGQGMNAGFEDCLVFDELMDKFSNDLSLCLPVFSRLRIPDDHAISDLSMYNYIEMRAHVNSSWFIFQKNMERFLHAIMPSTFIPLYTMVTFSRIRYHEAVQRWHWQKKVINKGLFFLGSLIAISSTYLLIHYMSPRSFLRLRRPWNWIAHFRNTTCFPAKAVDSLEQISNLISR

With `CCCCCc1cc(O)c(C/C=C(\C)CCC=C(C)C)c(O)c1C(=O)O` [CBGA, cannabigerolic acid] the inhibition at 100 µM (human KMO [1]) was 1%.
With `COc1cc(-c2cc(=O)c3c(O)c(C/C=C(\C)CCC=C(C)C)c(O)cc3o2)ccc1O` [CFA, cannflavin A] the Kon (human KMO [2]; SPR) was 0.3 ×10^3, 1/Ms, the Kd (human KMO [2]; SPR) was 41 µM and the Koff (human KMO [2]; SPR, dissociation rate) was 14.2 ×10^−3, 1/s. The kon (human KMO [2]; SPR, read-out: association rate) was 300 M⁻¹ s⁻¹, the Koff (human KMO [2]; SPR, read-out: dissociation rate) was 0.0142 s⁻¹ and the “binding response unit (RU)” value (human KMO [2]; at 10 μM) was 5.6 RU. For the same compound, the “binding response unit (RU)” value (human KMO [2]; at 19 μM) was 10.4 RU, the “binding response unit (RU)” value (human KMO [2]; at 38 μM) was 17.9 RU and the “binding response unit (RU)” value (human KMO [2]; at 150 μM) was 35.7 RU. The “binding response unit (RU)” value (human KMO [2]; at 300 μM) was 40.7 RU, the IC50 (human KMO [1]) was 29.4 µM and the inhibition at 100 µM (human KMO [1]) was 99%. The inhibition at 2.5 µM (human KMO [3]) was 8.5%, the inhibition at 5 µM (human KMO [3]) was 15% and the inhibition at 20 µM (human KMO [3]) was 38%. For the same compound, the inhibition at 40 µM (human KMO [3]) was 59%, the “Experimental RU” value (human KMO [4]) was 27 RU and the “binding mode of CFA and Ro 61-8048 to the KMO protein” value (human KMO [4]; competitive SPR analysis) was “competitive, rather than non-competitive binding”.
In the case of `CCCCCc1cc(O)c2c(c1)OC(C)(CCC=C(C)C)C=C2` (stereo not drawn) [CBC, cannabichromene], the inhibition at 100 µM (human KMO [1]) is reported as 0%.
In the case of `CCCCCc1cc(O)c2c(c1)OC(C)(C)C1=C2C(O)C(C)(O)CC1` (stereo not drawn) [CBT, cannabitriol], the “% inhibition of KMO enzyme activity” value (human KMO [1]; at 100 μM) is reported as 11%.
For `CCCCCc1cc(O)c2c(c1)OC(C)(C)c1ccc(C)cc1-2` [CBN, cannabinol], the inhibition at 100 µM (human KMO [1]) was 0%.
For `C=C(C)[C@@H]1CCC(C)=C[C@H]1c1c(O)cc(CCC)cc1O` [CBDV, cannabidivarin], the inhibition at 100 µM (human KMO [1]) was 0%.
For `O=C(O)[C@H]1C[C@@H]1C(=O)c1ccc(Cl)c(Cl)c1` [UPF-648], the IC50 (KMO [5]) is listed as 0.04 µM.
Compound `CCCCCc1cc(O)c2c(c1)OC(C)(C)[C@@H]1CC=C(C)C[C@@H]21` [Δ^8 THC, delta-8-Tetrahydrocannabinol] has an inhibition at 100 µM (human KMO [1]) of 1%.
In the case of `NC(CC(=O)c1cccc([N+](=O)[O-])c1)C(=O)O` (stereo not drawn), the IC50 (KMO [5]) is given as 0.9 µM.
Compound `C=C(C)[C@@H]1CCC(C)=C[C@H]1c1c(O)cc(CCCCC)cc1O` [CBD, cannabidiol, reference compound] has an inhibition at 100 µM (human KMO [1]) of 6%.
Compound `CCCCCc1cc(O)c(C/C=C(\C)CCC=C(C)C)c(O)c1` [CBG, cannabigerol] has an inhibition at 100 µM (human KMO [1]) of 1%.
In the case of `COc1ccc(S(=O)(=O)Nc2nc(-c3cccc([N+](=O)[O-])c3)cs2)cc1OC` [Ro 61-8048, 3,4-Dimethoxy-[-N-4-(Nitrophenyl)Thiazol-2YL]-Benzenesulfonamide, reference compound], the IC50 (KMO [6]) is listed as 0.037 µM, the “crossing of the blood brain barrier” value [7] is listed as “cannot cross the blood brain barrier” and the Kon (human KMO [2]; SPR) is listed as 3.7 ×10^3, 1/Ms. For the same compound, the Kd (human KMO [2]; SPR) was 11 µM, the Koff (human KMO [2]; SPR, dissociation rate) was 38.5 ×10^−3, 1/s and the “binding response unit (RU)” value (human KMO [2]; at 1 μM) was 1.48 RU. For the same compound, the “binding response unit (RU)” value (human KMO [2]; at 3 μM) was 2.99 RU, the “binding response unit (RU)” value (human KMO [2]; at 10 μM) was 13.4 RU and the “binding response unit (RU)” value (human KMO [2]; at 20 μM) was 27.0 RU. The IC50 (human KMO [1]) was 5.1 µM and the “Experimental RU” value (human KMO [4]) was 19 RU.
